Results as given in patent publication US6358885B1, “Substituted phenylheterocyclic herbicides” (Mississippi State University, priority 1992, dated 2002).

Legend:
Assay in all cases: Test B preemergence/postemergence greenhouse plant response rating 0 to 10
[1] = tested on: rape; format: in vivo, Brassica napus; conditions: for Plant response rating, Rape: 0 to 10 scale
Procedure, shortened: (§1)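 Postemergence treatment of plants two to eighteen cm tall ran alongside preemergence treatment of planted seed, each using compound in a non-phytotoxic solvent.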

[2] = tested on: bedstraw; format: in vivo, Galium aparine; conditions: for Plant response rating, Bedstraw: 0 to 10 scale
Procedure, shortened: as §1

[3] = tested on: lambsquarters; format: in vivo, Chenopodium album; conditions: for Plant response rating, Lambsquarter: 0 to 10 scale
Procedure, shortened: as §1

[4] = tested on: morningglory; format: in vivo, Ipomoea hederacea; conditions: for Plant response rating, Morningglory: 0 to 10 scale
Procedure, shortened: as §1

[5] = tested on: sorghum; format: in vivo, Sorghum bicolor; conditions: for Plant response rating, Sorghum: 0 to 10 scale
Procedure, shortened: as §1

[6] = tested on: barnyardgrass; format: in vivo, Echinochloa crus-galli; conditions: for Plant response rating, Barnyardgrass: 0 to 10 scale
Procedure, shortened: as §1

[7] = tested on: chickweed; format: in vivo, Stellaria media; conditions: for Plant response rating, Chickweed: 0 to 10 scale
Procedure, shortened: as §1

[8] = tested on: crabgrass; format: in vivo, Digitaria spp.; conditions: for Plant response rating, Crabgrass: 0 to 10 scale
Procedure, shortened: as §1

[9] = tested on: cotton; format: in vivo, Gossypium hirsutum; conditions: for Plant response rating, Cotton: 0 to 10 scale
Procedure, shortened: as §1

[10] = tested on: giant foxtail; format: in vivo, Setaria faberii; conditions: for Plant response rating, Giant foxtail: 0 to 10 scale
Procedure, shortened: as §1

[11] = tested on: soybean; format: in vivo, Glycine max; conditions: for Plant response rating, Soybean: 0 to 10 scale
Procedure, shortened: as §1

[12] = tested on: wild buckwheat; format: in vivo, Polygonum convolvulus; conditions: for Plant response rating, Wild buckwheat: 0 to 10 scale
Procedure, shortened: as §1

[13] = tested on: sugar beet; format: in vivo, Beta vulgaris; conditions: for Plant response rating, Sugar beet: 0 to 10 scale
Procedure, shortened: as §1

[14] = tested on: purple nutsedge; format: in vivo, Cyperus rotundus; conditions: for Plant response rating, Nutsedge: 0 to 10 scale
Procedure, shortened: as §1

[15] = tested on: barley; format: in vivo, Hordeum vulgare; conditions: for Plant response rating, Barley: 0 to 10 scale
Procedure, shortened: as §1

[16] = tested on: wild oat; format: in vivo, Avena fatua; conditions: for Plant response rating, Wild oat: 0 to 10 scale
Procedure, shortened: as §1

[17] = tested on: rice; format: in vivo, Oryza sativa; conditions: for Plant response rating, Rice: 0 to 10 scale
Procedure, shortened: as §1

[18] = tested on: cocklebur; format: in vivo, Xanthium pensylvanicum; conditions: for Plant response rating, Cocklebur: 0 to 10 scale
Procedure, shortened: as §1

[19] = tested on: wheat; format: in vivo, Triticum aestivum; conditions: for Plant response rating, Wheat: 0 to 10 scale
Procedure, shortened: as §1

[20] = tested on: cheatgrass; format: in vivo, Bromus secalinus; conditions: for Plant response rating, Cheatgrass: 0 to 10 scale
Procedure, shortened: as §1

[21] = tested on: blackgrass; format: in vivo, Alopecurus myosuroides; conditions: for Plant response rating, Blackgrass: 0 to 10 scale
Procedure, shortened: as §1

[22] = tested on: corn; format: in vivo, Zea mays; conditions: for Plant response rating, Corn: 0 to 10 scale
Procedure, shortened: as §1

[23] = tested on: velvetleaf; format: in vivo, Abutilon theophrasti; conditions: for Plant response rating, Velvetleaf: 0 to 10 scale
Procedure, shortened: as §1

Compound: COCCOc1cc(-c2nn3c(c2Cl)CCCC3)c(Cl)cc1Cl [Compound 72]
- Plant response rating, Rape ([1]; POSTEMERGENCE, Rate 50 g/ha): 9
- Plant response rating, Rape ([1]; PREEMERGENCE, Rate 50 g/ha): 0
- Plant response rating (0 to 10 scale), Rape ([1]; PREEMERGENCE, Rate 200 g/ha): 6
- Plant response rating, Rape ([1]; Rate 200 g/ha, POSTEMERGENCE): 9
- Plant response rating, Bedstraw ([2]; POSTEMERGENCE, Rate 50 g/ha): 7
- Plant response rating, Bedstraw ([2]; PREEMERGENCE, Rate 50 g/ha): 0
- Plant response rating (0 to 10 scale), Bedstraw ([2]; PREEMERGENCE, Rate 200 g/ha): 8
- Plant response rating, Bedstraw ([2]; Rate 200 g/ha, POSTEMERGENCE): 9
- Plant response rating, Lambsquarter ([3]; POSTEMERGENCE, Rate 50 g/ha): 10
- Plant response rating, Lambsquarter ([3]; PREEMERGENCE, Rate 50 g/ha): 9
- Plant response rating (0 to 10 scale), Lambsquarter ([3]; PREEMERGENCE, Rate 200 g/ha): 10
- Plant response rating, Lambsquarter ([3]; Rate 200 g/ha, POSTEMERGENCE): 10
- Plant response rating, Morningglory ([4]; POSTEMERGENCE, Rate 50 g/ha): 7
- Plant response rating, Morningglory ([4]; PREEMERGENCE, Rate 50 g/ha): 0
- Plant response rating (0 to 10 scale), Morningglory ([4]; PREEMERGENCE, Rate 200 g/ha): 0
- Plant response rating, Morningglory ([4]; Rate 200 g/ha, POSTEMERGENCE): 9
- Plant response rating, Sorghum ([5]; POSTEMERGENCE, Rate 50 g/ha): 5
- Plant response rating, Sorghum ([5]; PREEMERGENCE, Rate 50 g/ha): 0
- Plant response rating (0 to 10 scale), Sorghum ([5]; PREEMERGENCE, Rate 200 g/ha): 0
- Plant response rating, Sorghum ([5]; Rate 200 g/ha, POSTEMERGENCE): 6
- Plant response rating, Barnyardgrass ([6]; POSTEMERGENCE, Rate 50 g/ha): 5
- Plant response rating, Barnyardgrass ([6]; PREEMERGENCE, Rate 50 g/ha): 3
- Plant response rating (0 to 10 scale), Barnyardgrass ([6]; PREEMERGENCE, Rate 200 g/ha): 3
- Plant response rating, Barnyardgrass ([6]; Rate 200 g/ha, POSTEMERGENCE): 7
- Plant response rating, Chickweed ([7]; POSTEMERGENCE, Rate 50 g/ha): 2
- Plant response rating, Chickweed ([7]; PREEMERGENCE, Rate 50 g/ha): 0
- Plant response rating (0 to 10 scale), Chickweed ([7]; PREEMERGENCE, Rate 200 g/ha): 9
- Plant response rating, Chickweed ([7]; Rate 200 g/ha, POSTEMERGENCE): 3
- Plant response rating, Crabgrass ([8]; POSTEMERGENCE, Rate 50 g/ha): 2
- Plant response rating, Crabgrass ([8]; PREEMERGENCE, Rate 50 g/ha): 0
- Plant response rating (0 to 10 scale), Crabgrass ([8]; PREEMERGENCE, Rate 200 g/ha): 9
- Plant response rating, Crabgrass ([8]; Rate 200 g/ha, POSTEMERGENCE): 2
- Plant response rating, Cotton ([9]; POSTEMERGENCE, Rate 50 g/ha): 10
- Plant response rating, Cotton ([9]; PREEMERGENCE, Rate 50 g/ha): 0
- Plant response rating (0 to 10 scale), Cotton ([9]; PREEMERGENCE, Rate 200 g/ha): 0
- Plant response rating, Cotton ([9]; Rate 200 g/ha, POSTEMERGENCE): 10
- Plant response rating, Giant foxtail ([10]; POSTEMERGENCE, Rate 50 g/ha): 4
- Plant response rating, Giant foxtail ([10]; PREEMERGENCE, Rate 50 g/ha): 3
- Plant response rating (0 to 10 scale), Giant foxtail ([10]; PREEMERGENCE, Rate 200 g/ha): 7
- Plant response rating, Giant foxtail ([10]; Rate 200 g/ha, POSTEMERGENCE): 5
- Plant response rating, Soybean ([11]; POSTEMERGENCE, Rate 50 g/ha): 6
- Plant response rating, Soybean ([11]; PREEMERGENCE, Rate 50 g/ha): 0
- Plant response rating (0 to 10 scale), Soybean ([11]; PREEMERGENCE, Rate 200 g/ha): 0
- Plant response rating, Soybean ([11]; Rate 200 g/ha, POSTEMERGENCE): 7
- Plant response rating, Wild buckwheat ([12]; POSTEMERGENCE, Rate 50 g/ha): 10
- Plant response rating, Wild buckwheat ([12]; PREEMERGENCE, Rate 50 g/ha): 0
- Plant response rating (0 to 10 scale), Wild buckwheat ([12]; PREEMERGENCE, Rate 200 g/ha): 2
- Plant response rating, Wild buckwheat ([12]; Rate 200 g/ha, POSTEMERGENCE): 10
- Plant response rating, Sugar beet ([13]; POSTEMERGENCE, Rate 50 g/ha): 10
- Plant response rating, Sugar beet ([13]; PREEMERGENCE, Rate 50 g/ha): 0
- Plant response rating (0 to 10 scale), Sugar beet ([13]; PREEMERGENCE, Rate 200 g/ha): 9
- Plant response rating, Sugar beet ([13]; Rate 200 g/ha, POSTEMERGENCE): 10
- Plant response rating, Nutsedge ([14]; POSTEMERGENCE, Rate 50 g/ha): 2
- Plant response rating, Nutsedge ([14]; PREEMERGENCE, Rate 50 g/ha): 0
- Plant response rating (0 to 10 scale), Nutsedge ([14]; PREEMERGENCE, Rate 200 g/ha): 4
- Plant response rating, Nutsedge ([14]; Rate 200 g/ha, POSTEMERGENCE): 2
- Plant response rating, Barley ([15]; POSTEMERGENCE, Rate 50 g/ha): 4
- Plant response rating, Barley ([15]; PREEMERGENCE, Rate 50 g/ha): 0
- Plant response rating (0 to 10 scale), Barley ([15]; PREEMERGENCE, Rate 200 g/ha): 0
- Plant response rating, Barley ([15]; Rate 200 g/ha, POSTEMERGENCE): 5
- Plant response rating, Wild oat ([16]; POSTEMERGENCE, Rate 50 g/ha): 3
- Plant response rating, Wild oat ([16]; PREEMERGENCE, Rate 50 g/ha): 0
- Plant response rating (0 to 10 scale), Wild oat ([16]; PREEMERGENCE, Rate 200 g/ha): 3
- Plant response rating, Wild oat ([16]; Rate 200 g/ha, POSTEMERGENCE): 4
- Plant response rating, Rice ([17]; POSTEMERGENCE, Rate 50 g/ha): 4
- Plant response rating, Rice ([17]; PREEMERGENCE, Rate 50 g/ha): 0
- Plant response rating (0 to 10 scale), Rice ([17]; PREEMERGENCE, Rate 200 g/ha): 0
- Plant response rating, Rice ([17]; Rate 200 g/ha, POSTEMERGENCE): 6
- Plant response rating, Cocklebur ([18]; POSTEMERGENCE, Rate 50 g/ha): 8
- Plant response rating, Cocklebur ([18]; PREEMERGENCE, Rate 50 g/ha): 0
- Plant response rating (0 to 10 scale), Cocklebur ([18]; PREEMERGENCE, Rate 200 g/ha): 0
- Plant response rating, Cocklebur ([18]; Rate 200 g/ha, POSTEMERGENCE): 10
- Plant response rating, Wheat ([19]; POSTEMERGENCE, Rate 50 g/ha): 5
- Plant response rating, Wheat ([19]; PREEMERGENCE, Rate 50 g/ha): 0
- Plant response rating (0 to 10 scale), Wheat ([19]; PREEMERGENCE, Rate 200 g/ha): 3
- Plant response rating, Wheat ([19]; Rate 200 g/ha, POSTEMERGENCE): 5
- Plant response rating, Cheatgrass ([20]; POSTEMERGENCE, Rate 50 g/ha): 5
- Plant response rating, Cheatgrass ([20]; PREEMERGENCE, Rate 50 g/ha): 0
- Plant response rating (0 to 10 scale), Cheatgrass ([20]; PREEMERGENCE, Rate 200 g/ha): 3
- Plant response rating, Cheatgrass ([20]; Rate 200 g/ha, POSTEMERGENCE): 6
- Plant response rating, Blackgrass ([21]; POSTEMERGENCE, Rate 50 g/ha): 5
- Plant response rating, Blackgrass ([21]; PREEMERGENCE, Rate 50 g/ha): 0
- Plant response rating (0 to 10 scale), Blackgrass ([21]; PREEMERGENCE, Rate 200 g/ha): 4
- Plant response rating, Blackgrass ([21]; Rate 200 g/ha, POSTEMERGENCE): 7
- Plant response rating, Corn ([22]; POSTEMERGENCE, Rate 50 g/ha): 3
- Plant response rating, Corn ([22]; PREEMERGENCE, Rate 50 g/ha): 0
- Plant response rating (0 to 10 scale), Corn ([22]; PREEMERGENCE, Rate 200 g/ha): 2
- Plant response rating, Corn ([22]; Rate 200 g/ha, POSTEMERGENCE): 5
- Plant response rating, Velvetleaf ([23]; POSTEMERGENCE, Rate 50 g/ha): 9
- Plant response rating, Velvetleaf ([23]; PREEMERGENCE, Rate 50 g/ha): 0
- Plant response rating (0 to 10 scale), Velvetleaf ([23]; PREEMERGENCE, Rate 200 g/ha): 10
- Plant response rating, Velvetleaf ([23]; Rate 200 g/ha, POSTEMERGENCE): 10
